The inhibition is the relative decrease from the control value, in per cent. The melting point is the temperature of the solid-liquid transition.

Experimental findings from patent publication US9315490B2, “2,5-substituted pyrimidines” (Grünenthal GmbH, priority 2014, dated 2016) are described below.

For series [1], the target named is T1, human PDE4B1 (Homo sapiens, UniProt Q07343).
T1 construct: host or cells: Sf9 cells
The experiment in a line: cAMP HTRF assay to determine the activity of hPDE4B1. In kind it is biochemical. Particulars: inhibition of PDE4B at a test concentration of 1 μM. In outline: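 Human recombinant PDE4B1 from Sf9 cells (4.8 U) in Tris-HCl, MgCl2, DTT, Tween 20 buffer at pH 7.8 with 40 nM cAMP (final), 30 min at room temperature. Reaction stopped with 1 mM IBMX; remaining cAMP detected by HTRF (665/620 nm ratio). IC50 from eight-concentration curves.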
Background: TR-FRET usually uses a lanthanide donor and a delayed reading to cut background.

Series [2] concerns the target T1, human PDE4B1. The experiment in a line: TR-FRET assay using the LANCE Ultra cAMP kit to determine the activity of hPDE4B1. It is filed as biochemical. Particulars: test concentration 1 μM, read-out: Inhibition in % (inhibition of PDE4B). In outline: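 Sf9-expressed recombinant human PDE4B1 (0.96 U) hydrolyses 500 nM cAMP for 30 minutes at room temperature in 50 mM Tris-HCl, 50 mM MgCl2, 5 mM DTT, pH 8.5. The reaction is stopped with IBMX, and residual cAMP is measured by TR-FRET (665/620 ratio). IC50 comes from ten concentrations.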

T1 sequence (Q07343 whole entry): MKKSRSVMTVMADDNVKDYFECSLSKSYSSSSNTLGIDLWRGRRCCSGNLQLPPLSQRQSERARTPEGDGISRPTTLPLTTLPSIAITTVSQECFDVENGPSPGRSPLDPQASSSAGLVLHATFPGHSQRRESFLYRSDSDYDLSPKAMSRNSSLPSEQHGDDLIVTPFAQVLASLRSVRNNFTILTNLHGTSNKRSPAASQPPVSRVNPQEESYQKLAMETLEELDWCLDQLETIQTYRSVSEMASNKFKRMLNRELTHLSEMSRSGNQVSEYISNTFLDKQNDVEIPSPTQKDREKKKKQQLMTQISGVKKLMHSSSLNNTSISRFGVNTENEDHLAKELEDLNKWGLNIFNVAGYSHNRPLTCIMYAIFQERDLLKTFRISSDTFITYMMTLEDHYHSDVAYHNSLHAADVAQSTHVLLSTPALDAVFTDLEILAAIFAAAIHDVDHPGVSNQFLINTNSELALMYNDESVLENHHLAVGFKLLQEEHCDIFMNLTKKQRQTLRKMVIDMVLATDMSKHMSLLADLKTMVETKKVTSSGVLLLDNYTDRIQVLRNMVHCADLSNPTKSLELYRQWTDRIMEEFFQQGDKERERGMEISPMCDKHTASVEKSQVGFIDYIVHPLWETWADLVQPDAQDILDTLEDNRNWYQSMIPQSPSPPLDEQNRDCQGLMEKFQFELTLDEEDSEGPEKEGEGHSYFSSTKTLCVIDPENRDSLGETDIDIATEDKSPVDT

In turn, `Cc1cccc(-c2cnc(-n3cc(S(C)(=O)=O)c4ccc(C(=O)N5CCNC(=O)C5)cc43)nc2)c1` [Example 151, 4-(3-(Methylsulfonyl)-1-(5-(m-tolyl)pyrimidin-2-yl)-1H-indole-6-carbonyl)piperazin-2-one] showed a melting point of 283 to 287 °C. The inhibition at 1 µM in series [1] was 91%.
Molecule `COc1ccc(F)c(-c2cnc(-n3cc(S(C)(=O)=O)c4ccc(C(=O)N5CCNC(=O)C5)cc43)nc2)c1` [Example 152, 4-(1-(5-(2-Fluoro-5-methoxyphenyl)pyrimidin-2-yl)-3-(methylsulfonyl)-1H-indole-6-carbonyl)piperazin-2-one] gave a melting point of 293 to 295 °C. In series [1], the inhibition at 1 µM came out at 90%.
As for `COc1cccc(-c2cnc(-n3cc(S(C)(=O)=O)c4ccc(C(=O)N5CCNC(=O)C5)cc43)nc2)c1` [Example 153, 4-(1-(5-(3-Methoxyphenyl)pyrimidin-2-yl)-3-(methylsulfonyl)-1H-indole-6-carbonyl)piperazin-2-one], the melting point lay in the range of 270 to 273 °C. Besides, in series [1], the inhibition at 1 µM is 76%.
Molecule `CO[C@H]1CCN(C(=O)c2ccc3c([S+](C)[O-])cn(-c4ncc(-c5ccccc5F)cn4)c3c2)C1` (stereo partly drawn) [Example 172, (1-(5-(2-Fluorophenyl)pyrimidin-2-yl)-3-(methylsulfinyl)-1H-indol-6-yl)((S)-3-methoxypyrrolidin-1-yl)methanone] had a melting point of 164 to 166 °C. Besides, in series [1], the inhibition at 1 µM amounted to 46%.
`CC(C)(O)c1cn(-c2ncc(-c3ccccc3F)cn2)c2cc(C(=O)N3CCOCC3)ccc12` [Example 184, (1-(5-(2-Fluorophenyl)pyrimidin-2-yl)-3-(2-hydroxypropan-2-yl)-1H-indol-6-yl)(morpholino)methanone] returned a melting point of 116 to 119 °C. In addition, the inhibition at 1 µM in series [1] is 86%.
Consider `Cc1cc(-c2cnc(-n3cc([S+](C)[O-])c4ccc(C(=O)N5CCOCC5)cc43)nc2)ccn1` (stereo not shown) [Example 186, (1-(5-(2-Methylpyridin-4-yl)pyrimidin-2-yl)-3-(methylsulfinyl)-1H-indol-6-yl)(morpholino)methanone], for which the melting point lay within 230 to 232 °C. Moreover, the inhibition at 1 µM in series [1] is 74%.
With `C[S+]([O-])c1cn(-c2ncc(-c3ccnc(F)c3)cn2)c2cc(C(=O)N3CCOCC3)ccc12` (stereo not shown) [Example 187, (1-(5-(2-Fluoropyridin-4-yl)pyrimidin-2-yl)-3-(methylsulfinyl)-1H-indol-6-yl)(morpholino)methanone], the melting point was 285 to 288 °C. For the same molecule, the inhibition at 1 µM in series [1] came to 56%.
For `C[S+]([O-])c1cn(-c2ncc(-c3cccc(CO)c3)cn2)c2cc(C(=O)N3CCOCC3)ccc12` (stereo not shown) [Example 188, (1-(5-(3-(Hydroxymethyl)phenyl)pyrimidin-2-yl)-3-(methylsulfinyl)-1H-indol-6-yl)(morpholino)methanone] the same measures were 193 to 196 °C and 104%.
For `CCc1cccc(-c2cnc(-n3cc([S+](C)[O-])c4ccc(C(=O)N5CCOCC5)cc43)nc2)c1` (stereo not shown) [Example 189, (1-(5-(3-Ethylphenyl)pyrimidin-2-yl)-3-(methylsulfinyl)-1H-indol-6-yl)(morpholino)methanone] the same measures were 162 to 165 °C and 109%.
For `COC(=O)c1ccc(-c2cnc(-n3cc([S+](C)[O-])c4ccc(C(=O)N5CCOCC5)cc43)nc2)cc1` (stereo not shown) [Example 190, Methyl 4-(2-(3-(methylsulfinyl)-6-(morpholine-4-carbonyl)-1H-indol-1-yl)pyrimidin-5-yl)benzoate] the same measures were 256 to 258 °C and 90%.
Turning to `C[S+]([O-])c1cn(-c2ncc(-c3ccc(C(=O)O)cc3)cn2)c2cc(C(=O)N3CCOCC3)ccc12` (stereo not shown) [Example 191, 4-(2-(3-(Methylsulfinyl)-6-(morpholine-4-carbonyl)-1H-indol-1-yl)pyrimidin-5-yl)benzoic acid], the melting point is 219 to 223 °C. In addition, in series [1], the inhibition at 1 µM was 85%.
For `COC(=O)c1cccc(-c2cnc(-n3cc([S+](C)[O-])c4ccc(C(=O)N5CCOCC5)cc43)nc2)c1` (stereo not shown) [Example 192, Methyl 3-(2-(3-(methylsulfinyl)-6-(morpholine-4-carbonyl)-1H-indol-1-yl)pyrimidin-5-yl)benzoate] the same measures were 217 to 220 °C and 112%.
For `C[S+]([O-])c1cn(-c2ncc(-c3cccc(C(=O)O)c3)cn2)c2cc(C(=O)N3CCOCC3)ccc12` (stereo not shown) [Example 193, 3-(2-(3-(Methylsulfinyl)-6-(morpholine-4-carbonyl)-1H-indol-1-yl)pyrimidin-5-yl)benzoic acid] the same measures were 230 to 235 °C and 91%.
With `C[S+]([O-])c1cn(-c2ncc(-c3cccc(Cl)c3)cn2)c2cc(C(=O)N3CCOCC3)ccc12` (stereo not shown) [Example 194, (1-(5-(3-Chlorophenyl)pyrimidin-2-yl)-3-(methylsulfinyl)-1H-indol-6-yl)(morpholino)methanone], the melting point fell in the range of 211 to 213 °C. Further, the inhibition at 1 µM in series [1] was 92%.
As for `C[S+]([O-])c1cn(-c2ncc(-c3cc(C#N)cs3)cn2)c2cc(C(=O)N3CCOCC3)ccc12` (stereo not shown) [Example 195, 5-(2-(3-(Methylsulfinyl)-6-(morpholine-4-carbonyl)-1H-indol-1-yl)pyrimidin-5-yl)thiophene-3-carbonitrile], the melting point fell in the range of 253 to 256 °C. In addition, in series [2], the inhibition at 1 µM turned out to be 95%.
With `C[S+]([O-])c1cn(-c2ncc(-c3cc(C(N)=O)cs3)cn2)c2cc(C(=O)N3CCOCC3)ccc12` (stereo not shown) [Example 196, 5-(2-(3-(Methylsulfinyl)-6-(morpholine-4-carbonyl)-1H-indol-1-yl)pyrimidin-5-yl)thiophene-3-carboxamide], the melting point was in the range of 302 to 305 °C. In series [2], the inhibition at 1 µM stood at 96%.
For `Cc1csc(-c2cnc(-n3cc([S+](C)[O-])c4ccc(C(=O)N5CCOCC5)cc43)nc2)c1` (stereo not shown) [Example 197], in that order: 232 to 235 °C and 96%.
`Cc1ccc(F)c(-c2cnc(-n3cc([S+](C)[O-])c4ccc(C(=O)N5CCOCC5)cc43)nc2)c1` (stereo not shown) [Example 198] yielded a melting point of 120 to 123 °C. In addition, in series [1], the inhibition at 1 µM was found to be 114%.
As to `C[S+]([O-])c1cn(-c2ncc(-c3ccc(C(N)=O)cn3)cn2)c2cc(C(=O)N3CCOCC3)ccc12` (stereo not shown) [Example 199, 6-(2-(3-(Methylsulfinyl)-6-(morpholine-4-carbonyl)-1H-indol-1-yl)pyrimidin-5-yl)nicotinamide], the melting point fell in the range of 288 to 290 °C. Also, the inhibition at 1 µM in series [1] was determined as 99%.
For `C[S+]([O-])c1cn(-c2ncc(-c3ccc(F)cn3)cn2)c2cc(C(=O)N3CCOCC3)ccc12` (stereo not shown) [Example 200, (1-(5-(5-Fluoropyridin-2-yl)pyrimidin-2-yl)-3-(methylsulfinyl)-1H-indol-6-yl)(morpholino)methanone], in that order: 244 to 248 °C and 87%.
For `C[S+]([O-])c1cn(-c2ncc(-c3ncccc3F)cn2)c2cc(C(=O)N3CCOCC3)ccc12` (stereo not shown) [Example 201, (1-(5-(3-Fluoropyridin-2-yl)pyrimidin-2-yl)-3-(methylsulfinyl)-1H-indol-6-yl)(morpholino)methanone], in that order: 222 to 225 °C and 81%.
For the molecule `C[S+]([O-])c1cn(-c2ncc(-c3cc(C(N)=O)ccn3)cn2)c2cc(C(=O)N3CCOCC3)ccc12` (stereo not shown) [Example 202, 2-(2-(3-(Methylsulfinyl)-6-(morpholine-4-carbonyl)-1H-indol-1-yl)pyrimidin-5-yl)isonicotinamide], the melting point lay in the range of 303 to 306 °C. The inhibition at 1 µM in series [1] came to 94%.
For `C[S+]([O-])c1cn(-c2ncc(-c3cc(N)ccn3)cn2)c2cc(C(=O)N3CCOCC3)ccc12` (stereo not shown) [Example 209, 2-(1-(5-(4-Aminopyridin-2-yl)pyrimidin-2-yl)-3-(methylsulfinyl)-1H-indol-6-yl)(morpholino)methanone] the same measures were 293 to 297 °C and 101%.
The molecule `CN(C)c1ccnc(-c2cnc(-n3cc([S+](C)[O-])c4ccc(C(=O)N5CCOCC5)cc43)nc2)c1` (stereo not shown) [Example 210, (1-(5-(4-(Dimethylamino)pyridin-2-yl)pyrimidin-2-yl)-3-(methylsulfinyl)-1H-indol-6-yl)(morpholino)methanone] registered a melting point of 213 to 217 °C. The inhibition at 1 µM in series [1] came to 96%.
For `C[S+]([O-])c1cn(-c2ncc(-c3nccs3)cn2)c2cc(C(=O)N3CCOCC3)ccc12` (stereo not shown) [Example 211, (3-(Methylsulfinyl)-1-(5-(thiazol-2-yl)pyrimidin-2-yl)-1H-indol-6-yl)(morpholino)methanone] the same measures were 235 to 237 °C and 85%.
For `C[S+]([O-])c1cn(-c2ncc(-c3ccnnc3)cn2)c2cc(C(=O)N3CCOCC3)ccc12` (stereo not shown) [Example 212, (3-(Methylsulfinyl)-1-(5-(pyridazin-4-yl)pyrimidin-2-yl)-1H-indol-6-yl)(morpholino)methanone], in that order: 278 to 282 °C and 33%.
